Experiment [1] addresses T1, human dopamine D3 receptors (Homo sapiens, UniProt P35462).
T1 construct: expressed in transfected cells; host or cells: HEK-293 (membranes)
The experiment is described as follows: Dopamine D3 receptor binding, displacement of [125I]-iodosulpiride. The following applies: membranes from HEK-293 cells stably expressing human D3 receptor; 0.1 nM [125I]-iodosulpiride; 25° C., 60 minutes. Here is the method: (§1) The substance to be tested was dissolved either in methanol/Chremophor® (BASF-AG) or in dimethyl sulfoxide and then diluted with water to the desired concentration.
(§2) Triplicate mixtures were carried out.
The incubation buffer contained 50 mM Tris, 120 mM NaCl, 5 mM KCl, 2 mM CaCl2, 2 mM MgCl2 and 0.1% bovine serum albumin, 10 μM quinolone, 0.1% ascorbic acid (prepared fresh each day). The buffer was adjusted to pH 7.4 with HCl.
(§3) After incubation at 25° C. for 60 minutes, the mixtures were filtered under vacuum through Whatman GF/B glass fiber filters using a cell harvester. The filters were transferred by a filter transfer system into scintillation vials. After addition of 4 ml of Ultima Gold® (Packard), the samples were shaken for one hour and then the radioactivity was counted in a beta counter (Packard, Tricarb 2000 or 2200CA). The cp values were converted into dpm by means of a standard quench series with the aid of the instrument's own program.
(§4) Evaluation of the inhibition plots took place by iterative nonlinear regression analysis using the Statistical Analysis System (SAS) similar to the “LIGAND” program described by Munson and Rodbard.

Experiment [2] deals with T2, human dopamine D2L receptors (long isoform) (Homo sapiens, UniProt P14416).
T2 construct: expressed in transfected cells; host or cells: HEK-293 (membranes)
T2 sequence (P14416 whole entry, canonical isoform): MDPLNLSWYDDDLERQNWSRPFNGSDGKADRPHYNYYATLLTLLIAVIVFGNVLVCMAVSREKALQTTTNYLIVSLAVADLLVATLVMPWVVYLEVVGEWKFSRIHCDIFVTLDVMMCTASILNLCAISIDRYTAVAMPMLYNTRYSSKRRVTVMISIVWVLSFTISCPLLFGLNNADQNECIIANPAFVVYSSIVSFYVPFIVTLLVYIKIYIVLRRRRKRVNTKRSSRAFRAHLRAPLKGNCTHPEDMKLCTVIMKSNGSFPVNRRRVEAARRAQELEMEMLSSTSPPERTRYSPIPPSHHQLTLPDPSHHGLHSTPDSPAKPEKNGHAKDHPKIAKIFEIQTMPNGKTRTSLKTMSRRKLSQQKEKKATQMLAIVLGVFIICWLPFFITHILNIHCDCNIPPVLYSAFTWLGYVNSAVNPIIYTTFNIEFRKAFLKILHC
Nature of the experiment: Dopamine D2L receptor binding, displacement of [125I]-iodospiperone. The following applies: Ki(D2L)/Ki(D3); membranes from HEK-293 cells with human D2L and D3 receptors. How it is done: as §1, §2
The incubation buffer contained 50 mM Tris, 120 mM NaCl, 5 mM KCl, 2 mM CaCl2, 2 mM MgCl2 and 0.1% bovine serum albumin. The buffer was adjusted to pH 7.4 with HCl.
as §3, §4

T1 sequence (P35462 whole entry): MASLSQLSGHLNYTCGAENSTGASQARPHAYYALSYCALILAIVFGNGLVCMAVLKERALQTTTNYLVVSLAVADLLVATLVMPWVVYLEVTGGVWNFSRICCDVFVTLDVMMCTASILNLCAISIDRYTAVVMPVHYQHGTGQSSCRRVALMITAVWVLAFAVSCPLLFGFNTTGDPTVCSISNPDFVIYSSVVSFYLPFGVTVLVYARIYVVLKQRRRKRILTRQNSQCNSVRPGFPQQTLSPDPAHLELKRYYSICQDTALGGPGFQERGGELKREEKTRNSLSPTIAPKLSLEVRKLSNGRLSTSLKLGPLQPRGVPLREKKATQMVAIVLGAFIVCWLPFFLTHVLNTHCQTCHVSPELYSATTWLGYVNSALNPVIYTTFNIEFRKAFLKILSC

Turning to `CCCc1cc(N2CCN(CCCCn3ccc(C)cc3=O)CC2)nc(C(C)(C)C)n1.Cl` [Example 3, 4-(2-tert-Butyl-6-propylpyrimidin-4-yl)-1-[4-(4-methyl-2-oxopyridin-1(2H)-yl)butyl]piperazin-1-ium chloride], affinity in experiment [1] was put at a Ki of 0.84 nM. Besides, the “Selectivity vs. D2L” value in experiment [2] came out at 137.

In experiment [1], `CCCc1cc(N2CCN(CCCCn3cccc(OC)c3=O)CC2)nc(C(C)(C)C)n1` [Example 5, 1-{4-[4-(2-tert-Butyl-6-propylpyrimidin-4-yl)piperazin-1-yl]butyl}-3-methoxy-1H-pyridin-2-one] gave a Ki of 1.2 nM. Moreover, the “Selectivity vs. D2L” value in experiment [2] came to 51.

In turn, `COc1cccn(CCCCN2CCN(c3cc(C(F)(F)F)nc(C(C)(C)C)n3)CC2)c1=O` [Example 6, 1-{4-[4-(2-tert-Butyl-6-trifluoromethylpyrimidin-4-yl)piperazin-1-yl]butyl}-3-methoxy-1H-pyridin-2-one] had a Ki in experiment [1] of 2.2 nM. Also, the “Selectivity vs. D2L” value in experiment [2] came out at 74.

As for `CCCc1cc(N2CCN(CCCCn3cccc(C)c3=O)CC2)nc(C(C)(C)C)n1` [Example 7, 1-{4-[4-(2-tert-Butyl-6-propylpyrimidin-4-yl)piperazin-1-yl]butyl}-3-methyl-1H-pyridin-2-one], the Ki in experiment [1] was 1.25 nM. Moreover, the “Selectivity vs. D2L” value in experiment [2] stood at 129.

`Cc1cccn(CCCCN2CCN(c3cc(C(F)(F)F)nc(C(C)(C)C)n3)CC2)c1=O` [Example 11, 1-{4-[4-(2-tert-Butyl-6-trifluoromethylpyrimidin-4-yl)piperazin-1-yl]butyl}-3-methyl-1H-pyridin-2-one] had a Ki in experiment [1] of 2.31 nM. Moreover, in experiment [2], the “Selectivity vs. D2L” value turned out to be 74.

These data come from US8334289B2, “Pyridin-2-one compounds and their use as modulators of the dopamine D3 receptor” (Abbott GmbH & Co. KG, priority 2004, dated 2012).
